Experiments:
[1] = biological target: T1, Melatonin receptor type 1B (Homo sapiens) (UniProt P49286); assay: Intrinsic activity at human cloned MT2 receptor expressed in mouse NIH-3T3 cells assessed as stimulation of [35S]GTPgammaS binding relative to melatonin; assay type: functional, cell-based; details: NIH3T3
T1 sequence (whole entry): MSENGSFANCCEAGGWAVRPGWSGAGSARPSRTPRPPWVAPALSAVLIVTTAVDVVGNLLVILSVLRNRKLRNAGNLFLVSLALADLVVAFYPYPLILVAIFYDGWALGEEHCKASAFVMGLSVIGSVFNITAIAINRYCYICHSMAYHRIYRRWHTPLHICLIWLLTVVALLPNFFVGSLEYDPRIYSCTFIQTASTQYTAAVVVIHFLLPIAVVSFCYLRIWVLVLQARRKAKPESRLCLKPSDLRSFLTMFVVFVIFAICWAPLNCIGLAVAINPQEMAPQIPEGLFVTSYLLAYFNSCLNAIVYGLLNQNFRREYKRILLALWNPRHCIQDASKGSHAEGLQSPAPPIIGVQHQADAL

[2] = biological target: T2, Melatonin receptor type 1B (Homo sapiens, UniProt P49286); assay: Displacement of 2-[125I]iodomelatonin from human cloned MT2 receptor expressed in mouse NIH-3T3 cell membrane; assay type: cell membranes, NIH3T3
T2 sequence (P49286 whole entry): T1 sequence (whole entry)

[3] = species on record: Homo sapiens; assay: Selectivity index, ratio of Ki for human cloned MT2 receptor to Ki for human cloned MT1 receptor
[4] = biological target: T3, Melatonin receptor type 1A (Homo sapiens, UniProt P48039); assay: Intrinsic activity at human cloned MT1 receptor expressed in mouse NIH-3T3 cells assessed as stimulation of [35S]GTPgammaS binding relative to melatonin; assay type: functional, cell-based; details: NIH3T3
T3 sequence (P48039 whole entry): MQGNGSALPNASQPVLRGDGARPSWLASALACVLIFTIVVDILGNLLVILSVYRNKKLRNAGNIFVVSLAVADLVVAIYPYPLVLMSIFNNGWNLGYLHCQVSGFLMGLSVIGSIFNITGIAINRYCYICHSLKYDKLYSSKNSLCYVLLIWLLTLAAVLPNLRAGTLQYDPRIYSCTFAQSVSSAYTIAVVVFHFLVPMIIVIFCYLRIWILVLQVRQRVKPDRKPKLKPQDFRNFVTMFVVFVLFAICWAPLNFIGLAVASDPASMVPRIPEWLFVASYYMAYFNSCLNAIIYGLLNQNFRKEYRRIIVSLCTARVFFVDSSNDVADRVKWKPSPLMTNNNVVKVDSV

[5] = biological target: T3, Melatonin receptor type 1A; assay: Displacement of 2-[125I]iodomelatonin from human cloned MT1 receptor expressed in mouse NIH-3T3 cell membrane; assay type: cell membranes, NIH3T3

Row | SMILES | Intrinsic activity [1] | Ki [2] [nM] | Ratio Ki [3] | Intrinsic activity [4] | Ki [5] [nM]
1 | COc1cccc(N(CCCCCCN(CCNC(C)=O)c2cccc(OC)c2)CCNC(C)=O)c1 | -0.09 | 36.3 | 0.05 | -0.04 | 741
2 | CC(=O)NCCN(C)c1cccc(OCCCCCCCCOc2cccc(N(C)CCNC(C)=O)c2)c1 | 0.38 | 93.3 | 4.7 | 0.47 | 20
3 | CC(=O)NCCN(C)c1cccc(OCCCCCOc2cccc(N(C)CCNC(C)=O)c2)c1 | 0.64 | 813 | 14 | 0.46 | 57.5
4 | CC(=O)NCCN(C)c1cccc(OCCCCCCCCCCOc2cccc(N(C)CCNC(C)=O)c2)c1 | 0.57 | 40.7 | 10 | 0.42 | 3.98
5 | COc1cccc(N(CCCCCCCCCCN(CCNC(C)=O)c2cccc(OC)c2)CCNC(C)=O)c1 | 0.37 | 309 | 0.8 | 0.12 | 380
6 | COc1cccc(N(CCNC(C)=O)C(=O)CCCCC(=O)N(CCNC(C)=O)c2cccc(OC)c2)c1 | 0.91 | 245 | 0.85 | 0.94 | 288
7 | CC(=O)NCCN(C)c1cccc(OCCCCOc2cccc(N(C)CCNC(C)=O)c2)c1 | 0.18 | 1000 | 23 | 0.21 | 42.7
8 | CC(=O)NCCN(C)c1cccc(OCCCCCCOc2cccc(N(C)CCNC(C)=O)c2)c1 | 0.33 | 182 | 54 | 0.44 | 3.39
9 | CC(=O)NCCN(C)c1cccc(OCCCOc2cccc(N(C)CCNC(C)=O)c2)c1 | 0.33 | 2090 | 102 | 0.26 | 20.4
10 | CC(=O)NCCN(C)c1cccc(OCCCCCCOc2ccccc2)c1 | 0.54 | 158 | 11 | 0.49 | 14.5
